Reference: patent US6562803B2, “Hair-growing agent” (Kyowa Hakko Kogyo Co., Ltd., priority 2001, dated 2003)

Test system: mouse hair follicle epithelial cells
Assay: Cell growth-promoting effect on cultured mouse hair follicle epithelial cells (MTT)
Assay type: cell-based
Conditions: cultured 5 days, absorbance at 570 nm, control DMSO alone = 100
Experimental: The skin on the back of a 4-days-old C3H mouse (Charles River Japan, Inc.) was cut off and treated with MEM (Eagle's Minimum Essential Medium) containing 500 units/ml Dispase (Godo Shusei Co., Ltd.) and 5% fetal calf serum (FCS) at 4° C. for 16 hours.
The dermis suspension was filtered through a 212-μm nylon mesh (Nippon Rikagaku Kikai Co., Ltd.) and the filtrate was centrifuged at 1000 rpm for 5 minutes to obtain pellets containing hair follicle tissue. To the pellets was added calcium/magnesium-free PBS (Dulbecco's Phosphate-Buffered Saline) and the pellets were suspended therein using a pipette. The resulting suspension was allowed to stand for 15 minutes to precipitate hair follicle tissue. The same procedure as above (addition of calcium/magnesium-free PBS, suspending by use of a pipette, and precipitation by allowing the suspension to stand for 15 minutes) was repeated three times using the obtained hair follicle tissue.
To the resulting mixture was added DMEM containing 10% FCS to prepare a hair follicle tissue cell suspension having a density of 3×10^5 cells/ml. The hair follicle tissue cell suspension was put into wells of a 24-well collagen-coated plate (Iwaki Glass Co., Ltd.) in an amount of 1 ml/well, followed by culturing in 5% CO2 at 37° C. for 24 hours.
During the culturing, the medium was replaced with a fresh one every other day.
The degree of cell growth was measured according to the method using MTT [3-(4,5-dimethylthiazol-2-yl)-2,5-diphenyl tetrazolium bromide]
To each well of the 24-well microplate (2 cm^2/well) was added a PBS solution of MTT (5 mg/ml) in an amount of 1/10 by volume based on 1 ml of the culture. The plate was shaken to make the mixture homogeneous, followed by culturing in 5% CO2 at 37° C. for 4 hours. Four hours later, the culture was sucked and 1 ml of a 0.04 mol/l solution of HCl in isopropyl alcohol was added to each well to completely dissolve formazan formed in the wells.
The degree of cell growth was determined by measuring the absorbance at 570 nm based on that at 650 nm as a control.

Row | Structure (SMILES) | Relative cell growth rate based on the control as 100 (1 μmol/l) | Relative cell growth rate based on the control as 100 (30 μmol/l)
1 | CCCCCCCC/C=C\CCCCCCCC(=O)OCC(COP(=O)(O)O)OC(C)=O (stereo not drawn) [1-O-oleoyl-2-O-acetylglyceryl-3-phosphoric Acid] | 327 | 
2 | Cc1c(C)c2c(c(C)c1O)CCC(C)(CCCC(C)CCCC(C)CCCC(C)C)O2 (racemic) [dl-α-Tocopherol, dl-α-tocopherol] |  | 178
3 | Oc1cc(O)c2c(c1)O[C@H](c1ccc(O)c(O)c1)[C@H](O)[C@H]2c1c(O)cc(O)c2c1O[C@H](c1ccc(O)c(O)c1)[C@H](O)C2 [Procyanidin B-2, epicatechin-(4β→8)-epicatechin] |  | 295
